Measured values: the supplement of paper PMC5412046
Counter-ions that a name gives are not always drawn.

Tests used:
SB.mhdgc-1 = test: AC50 for growth inhibition (viability) (log10 M); higher = less potent; settings: SB.mhdgc-1 (hereditary c.1380delA CDH1 gastric cancer)
Method in brief: (§1)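 Log half-maximal activity concentration reflects viability of patient-derived gastric cancer cells, hereditary or sporadic, normalised to DMSO and fitted with four parameters, with only high-quality curve classes retained. Wells of a 1536 plate held 500 cells and received compound by pintool at 11 threefold dilutions from a final 46 μM. Luminescence from CellTiter-Glo was read on a ViewLux at 48 h.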

SB.msgc-1 = test: as above; settings: SB.msgc-1 (sporadic gastric cancer)
Method in brief: as §1

SMILES	AC50 for growth inhibition (log10 M) (SB.mhdgc-1)	AC50 for growth inhibition (log10 M) (SB.msgc-1)
CCCCC(C)(C)[C@H](O)/C=C/[C@H]1[C@H](O)CC(=O)[C@@H]1C/C=C\CCCC(=O)O [16,16-dimethyl PGE2]	-4.68	-4.63
CC1=C(C=CC=C1)N2\C(=N/C3=C(C(=CC=C3)C)C2=O)C[N]4N=CC5=C4N=CN=C5N [PIK-293]	-6.73	-7.08
CCOC(=O)\C1=C(/C)N\C2=C(C1C3=CC=C(C=C3)C4=CC=CC=C4)\C(=O)CC(C)(C)C2 (stereo not given) [ITD-1]	-4.83	-4.73
COc1ccc(/C=C\c2cc(OC)c(OC)c(OC)c2)cc1O [Combretastatin A-4]	-8.68	-5.23
O=C(/C=C/c1cccc([S+](=O)([O-])Nc2ccccc2)c1)NO [Belinostat]	-5.02	-5.47
COC1=C(OCCCN2CCOCC2)C=CC\3=C1/N=C(/NC(=O)C4=CN=C(N)N=C4)N5CC/N=C35 [BAY-80-6946]	-6.84	-7.44
CC1(C)CCC(=C(CN2CCN(CC2)C3=CC=C(C=C3)C(=O)N[S+]([O-])(=O)C4=CC(=C(N[C@H](CCN5CCOCC5)CSC6=CC=CC=C6)C=C4)[S+]([O-])(=O)C(F)(F)F)\C1)/C7=CC=C(Cl)C=C7 [Navitoclax]	-6.13	-5.13
CC(=O)[C@]1(O)Cc2c(O)c3c(c(O)c2[C@@H](O[C@H]2C[C@H](N)[C@H](O)[C@H](C)O2)C1)C(=O)c1ccccc1C3=O [Idarubicin hydrochloride]	-7.38	-6.63
C[C@@H](Oc1cc(-c2cnn(C3CCNCC3)c2)cnc1N)c1c(Cl)ccc(F)c1Cl [Crizotinib]	-4.68	-4.63
N=C1S/C(=C\c2ccc(-c3ccc4c(c3)C(=O)NC4=O)o2)C(=O)N1c1ccc(Br)cc1 [Bioymifi]	-5.28	-5.43
CC/C(=C(\c1ccccc1)c1ccc(OCCN(C)C)cc1)c1ccccc1 [Tamoxifen]	-4.68	-4.73
CC(/C=C/C(=O)NO)=C\[C@@H](C)C(=O)c1ccc(N(C)C)cc1 [Trichostatin A]	-5.88	-6.13
O=C(Nc1nc2ccccc2n1CCN1CCOCC1)c1cccc([N+](=O)[O-])c1	-4.83	-4.83
C[N]1C=NC=C1[C@@](N)(C2=CC=C(Cl)C=C2)C3=CC=C4N(C)C(=O)\C=C(\C5=CC=CC(=C5)Cl)C4=C3 [Tipifarnib]	-4.83	-4.83
CC(NCc1ccc2c(c1)[nH]/c(=N\C(=O)c1ccc(-c3cn[nH]c3)s1)n2CC(C)(C)O)C(C)(C)C (stereo not given)	-5.43	-6.18
Oc1c(Cl)cc(Cl)c2cccnc12 [Chloroxine]	-4.93	-4.68
CC12CC3CC(C)(C1)CC(N)(C3)C2 [Memantine hydrochloride]	-4.73	-4.83
C=CC(=O)Nc1cc2c(Nc3ccc(F)c(Cl)c3)ncnc2cc1C#CC(C)(C)N1CCN(C)CC1 [AV-412]	-5.53	-5.08
C[C@H]1O[C@H]([C@H](O)[C@@H]1O)N2\C=C(F)/C(=O)NC2=O [Doxifluridine]	-6.18	-5.33
CC(C)C[C@H](NC(=O)CNC(=O)c1cc(Cl)ccc1Cl)B1OC(=O)CC(CC(=O)O)(C(=O)O)O1 (stereo not given in full) [Ixazomib citrate]	-7.03	-7.23
CC[C@@]1([C@@H]2O[C@@H]([C@H]3O[C@@](O)(CO)[C@H](C)C[C@@H]3C)C[C@@H]2C)CC[C@H]([C@]2(C)CC[C@]3(C[C@H](O)[C@@H](C)[C@@H]([C@@H](C)[C@@H](OC)[C@H](C)C(=O)[O-])O3)O2)O1 [Monensin sodium salt]	-6.99	-6.94
O=C1Nc2cc(Br)ccc2/C1=C1/Nc2ccccc2/C1=N\O [BIO]	-4.78	-4.98
C=CC(=O)Nc1ccc2ncnc(Nc3ccc(OCc4cccc(F)c4)c(Cl)c3)c2c1 [AST-1306]	-5.28	-8.33
CC1(C)CC\C2=C(/O1)C3=C(C=CC=C3)C(=O)C2=O [beta-Lapachone]	-4.58	-4.63
CCc1cc(-c2n[nH]c(C)c2-c2ccc3c(c2)OCCO3)c(O)cc1O	-5.53	-5.68

SMILES	AC50 for growth inhibition (log10 M) (SB.mhdgc-1)	AC50 for growth inhibition (log10 M) (SB.msgc-1)
Cc1cc(OCCCc2c(C(=O)O)n(Cc3cccnc3)c3c(-c4c(COc5ccc(N6CCN([S+](C)(=O)[O-])CC6)cc5)nn(C)c4C)cccc23)cc(C)c1Cl	-4.73	-4.63
CCc1cc(Nc2nccc(-c3c(-c4ccc(OC)c(C(=O)Nc5c(F)cccc5F)c4)nc4ccccn34)n2)c(OC)cc1N1CCC(N2CCN([S+](C)(=O)[O-])CC2)CC1	-7.33	-5.63
COC[C@H](c1ccc(C(F)(F)F)cc1)N1CCN(C2(C)CCN(C(=O)c3c(C)ncnc3C)CC2)C[C@H]1C.O=C(O)/C=C\C(=O)O [Vicriviroc]	-5.33	-4.78
CC(C)C1=C(O)C=C(O)C(=C1)C/2=N/NC(=O)N2C3=CC4=C(C=C3)[N](C)C=C4 [Ganetespib]	-7.33	-6.93
CC[C@@]1(O)C(=O)OC\C2=C1\C=C\3N(CC4=C3N=C5C=CC=CC5=C4)C2=O [Camptothecin]	-7.93	-7.43
OC1=CC=C(C=C1)\C2=C(O)\C(=O)C3=C(O2)C=C(O)C=C3O [Kaempferol]	-4.93	-4.88
O=C1NC(=O)[C@@H](c2cn3c4c(cccc24)CCC3)[C@@H]1c1c[nH]c2ccccc12 [Tivantinib]	-6.48	-6.23
CCN1CCN(C(=O)Cc2ccc(Nc3ncc(F)c(Nc4ccc(C(=O)Nc5ccccc5Cl)cc4)n3)cc2)CC1 [Aurora A Inhibitor I]	-4.78	-4.73
CCOc1cc2ncc(C#N)c(Nc3ccc(F)c(Cl)c3)c2cc1NC(=O)/C=C/CN(C)C [Pelitinib]	-7.38	-7.43
O=C(Cc1ccc(-c2ccc(OCCN3CCOCC3)cc2)cn1)NCc1ccccc1 [KX-01]	-8.18	-7.48
O=C(O)C1CCCN(CCC=C(c2ccccc2)c2ccccc2)C1 (stereo not given)	-5.53	-5.03
C[C@]\12CC[C@H](O)CC1=C/CC3C2CC[C@@]\4(C)C3C\C=C4[N]5C=NC6=C5C=CC=C6 (stereo not given in full) [Galeterone]	-4.68	-4.68
CCOC(=O)C/1=C(C)/NC(=S)NC1C2=CC=CC(=C2)O (stereo not given) [Monastrol]	-7.38	-7.38
Cc1cccc(/C=N/Nc2cc(N3CCOCC3)nc(OCCc3ccccn3)n2)c1 [Apilimod]	-4.88	-4.78
O=C(Nc1ccc(F)c(C(F)(F)F)c1)Nc1nnc(-c2ccncc2)s1	-5.53	-5.28
O=C1[C@H](Cc2ccc(O)cc2)N2C(=O)CCN(C(=O)NCc3ccccc3)[C@H]2CN1Cc1cccc2ccccc12 [ICG-001]	-4.83	-4.88
COc1ccc([S+](=O)([O-])Nc2cc(-c3c(O)ccc4ccccc34)c(O)c3ccccc23)cc1 [C-188-9]	-4.73	-4.73
O=C(O)Cc1cccc(OCCCN(Cc2cccc(C(F)(F)F)c2Cl)CC(c2ccccc2)c2ccccc2)c1 [GSK-3965]	-4.78	-4.68
CCC(=O)N[C@H]1CC[C@H](C(=O)N(C)c2ccc(-c3nc4ccccc4o3)cc2)C1 [FASN BI]	-5.93	-5.93
C=C1/C(=C\C=C2/CCC[C@]3(C)[C@@H]([C@H](C)/C=C/[C@H](C)C(C)C)CC[C@@H]23)C[C@@H](O)C[C@@H]1O [Doxercalciferol]	-6.73	-6.23
CNC1CCC(N(Cc2cccc(-c3ccncc3)c2)C(=O)c2sc3c(F)ccc(F)c3c2Cl)CC1 (stereo not given) [Hh-Ag1.5]	-4.73	-4.83
NC1=NC=C(C=C1)C2=CC=C3N=CC\4=C(N(C(=O)\C=C4)C5=CC(=CC=C5)C(F)(F)F)C3=C2 [Torin-2]	-6.48	-6.78
Cc1[nH]c2ccccc2c1CCNCc1ccc(/C=C/C(=O)NO)cc1 [Panobinostat]	-6.08	-6.98
COc1cc2c(Nc3ccc(Br)cc3F)ncnc2cc1OCC1CCN(C)CC1 [Vandetanib]	-4.68	-4.73
O=C(CCCCCCC(=O)Nc1ccccc1)NO [Vorinostat]	-5.63	-5.58
